This is an account of results in patent US5773451A, “Substituted arylthioalkylthiopyridines” (BYK Gulden Lomberg Chemische Fabrik GmbH, priority 1993, dated 1998).

≈ marks a conversion by molar mass, not a printed value.

The test system of this assay is Helicobacter pylori. In words: activity against Helicobacter pylori (MIC 50, Columbia agar, growth period of 4 days). It is filed as cell-based. Conditions: 96 h, Columbia agar (Oxoid), method of Iwahi et al., approximate values, read-out: Approx. MIC 50 value. From the text: The compounds of formula I have been investigated in respect of their activity against Helicobacter pylori in accordance with the method described by Tomoyuki Iwahi et al. (Antimicrobial Agents and Chemo-therapy, 1991, 490-496) using Columbia agar (Oxoid) over a growth period of 4 days. The approximate MIC 50 values listed in the following Table 2 resulted from these tests for the compounds studied (the numbers stated for the compounds agree with the compound numbers in the description).
Regarding `Cc1ccnc(SCCCSc2ccnc(CSc3nc4ccccc4[nH]3)c2C)n1` [Compound 16, 2-{[[3-Methyl-4-[3-(4-methyl-pyrimidine-2-yl-thio)-propylthio]-2-pyridinyl]methyl]thio}-1H-benzimidazole], the MIC50 is around 0.05 µg/mL (≈ 0.11 µM).

With `Cc1c(SCCCSc2nncn2C)ccnc1CSc1nc2ccccc2[nH]1` [Compound 2, 2-{[[3-Methyl-4-(3-(4-methyl-1,2,4-triazol-3-yl-thio)-propylthio)-2-pyridinyl]methyl]thio}-1H-benzimidazole], the MIC50 was around 0.05 µg/mL (≈ 0.113 µM).

As for `Cc1c(SCCCSc2nccs2)ccnc1CSc1nc2ccccc2[nH]1` [Compound 9, 2-{[[3-Methyl-4-(3-(thiazol-2-yl-thio)-propylthio)2-pyridinyl]methyl]thio}-1H-benzimidazole], the MIC50 was around 0.05 µg/mL (≈ 0.112 µM).

Turning to `Cc1c(SCCCSc2ccncc2)ccnc1CSc1nc2ccccc2[nH]1` [Compound 19, 2-{[[3-Methyl-4-(3-(pyridin-4-yl-thio)-propylthio)-2-pyridinyl]methyl]thio}-1H-benzimidazole], the MIC50 was around 0.05 µg/mL (≈ 0.114 µM).

Take `Cc1c(SCCCSc2ncccn2)ccnc1CSc1nc2ccccc2[nH]1` [Compound 11, 2-{[[3-Methyl-4-(3-(pyrimidin-2-yl-thio)-propylthio)-2-pyridinyl]methyl]thio}-1H-benzimidazole]: the MIC50 was around 0.05 µg/mL (≈ 0.114 µM).

For `Cc1c(SCCCSc2nnnn2C)ccnc1CSc1nc2ccccc2[nH]1` [Compound 8, 2-{[[3-Methyl-4-(3-(1-methyl-tetrazol-5-yl-thio)-propylthio)-2-pyridinyl]methyl]thio}-1H-benzimidazole], the MIC50 is around 0.05 µg/mL (≈ 0.113 µM).

Take `Cc1c(SCCCSc2nnc(N)s2)ccnc1CSc1nc2ccccc2[nH]1` [Compound 5, 2-{[[4-[3-(5-Amino-1,3,4-thiadiazol-2-yl-thio)-propylthio]-3-methyl-2-pyridinyl]methyl]thio}-1H-benzimidazole]: the MIC50 is around 0.5 µg/mL (≈ 1.09 µM).

`Cc1c(SCCCSc2nncs2)ccnc1CSc1nc2ccccc2[nH]1.Cl.Cl.Cl` [Compound 18, 2-{[[3-Methyl-4-(3-(1,3,4-thiadiazol-2-yl-thio)-propylthio)-2-pyridinyl]methyl]thio}-1H-benzimidazole trihydrochloride]: the MIC50 is around 0.05 µg/mL.

For `Cc1c(SCCCSc2ccccn2)ccnc1CSc1nc2ccccc2[nH]1` [Compound 10, 2-{[[3-Methyl-4-(3-(pyridin-2-yl-thio)-propylthio)-2-pyridinyl]methyl]thio}-1H-benzimidazole], the MIC50 was around 0.05 µg/mL (≈ 0.114 µM).

As for `Cc1c(SCCCSc2ncc[nH]2)ccnc1CSc1nc2ccccc2[nH]1` [Compound 6, 2-{[[4-[3-Imidazol-2-yl-thio-propylthio]-3-methyl-2-pyridinyl]methyl]thio}-1H-benzimidazole], the MIC50 is around 0.1 µg/mL (≈ 0.234 µM).

Turning to `Cc1nnc(SCCCSc2ccnc(CSc3nc4ccccc4[nH]3)c2C)s1` [Compound 1], the MIC50 is around 0.1 µg/mL (≈ 0.218 µM).

For the compound `Cc1c(SCCCSc2nc3ccccc3[nH]2)ccnc1CSc1nc2ccccc2[nH]1` [Compound 12], the MIC50 is around 0.05 µg/mL (≈ 0.105 µM).

For the compound `Cc1c(SCCCSc2nccn2C)ccnc1CSc1nc2ccccc2[nH]1` [Compound 3, 2-{[[3-Methyl-4-(3-(1-methylimidazol-2-yl-thio)-propylthio)-2-pyridinyl]methyl]thio}-1H-benzimidazole], the MIC50 is around 0.05 µg/mL (≈ 0.113 µM).

`Cc1c(SCCCSc2ccccc2)ccnc1CSc1nc2ccccc2[nH]1` [Compound 13]: the MIC50 was around 0.05 µg/mL (≈ 0.114 µM).

On to `Cc1c(SCCCCSc2nnnn2C)ccnc1CSc1nc2ccccc2[nH]1` [Compound 24, 2-{[[3-Methyl-4-(4-(1-methyl-tetrazol-5-yl-thio)-butylthio)-2-pyridinyl]methyl]thio}-1H-benzimidazole], for which the MIC50 is around 0.05 µg/mL (≈ 0.109 µM).
